Results reported in patent publication US20080299587A1, “METHODS OF MEASURING INHIBITION OF PLATELET AGGREGATION BY THROMBIN RECEPTOR ANTAGONISTS” (priority 2007, published 2008).
Where two headings read alike, the source gives them in different places.

Assays:
[1] = system: platelets in whole blood activated by PAR-1 thrombin receptor activating peptide (TRAP-1); assay: VERIFYNOW IIb/IIIa Assay, dose-dependent platelet inhibition with TRAP-1 as platelet activator; assay type: cell-based, human; settings: TRAP-1 3.7 μM; for % Inhibition, Average: Average of four human donors; for % Inhibition (platelet inhibition relative to baseline): whole blood, 30 min 37°C
From the text: The VERIFYNOW™ System instrument is a turbidometric based optical detection system that measures platelet induced aggregation as an increase in light transmittance. The system includes an analyzer, disposable cartridge and controls. The cartridge contains reagents based on microparticle agglutination technology. The quality control system includes an electronic control, two levels of assayed “wet” controls (WQC), an in-cartridge humidity sensor, an in-packaging temperature indicator, and a test for concurrence of two assay channels. […] For use in the present methods the test cartridge of the system contains a lyophilized preparation comprising particles with passively bound GPIIb/IIIa receptor ligand, a thrombin receptor activator, and buffer. The patient sample is usually citrated whole blood, which is automatically dispensed from the blood collection tube into the cartridge by the analyzer, with no blood handling required by the user. The interaction is monitored by the infrared absorbency characteristics of the particles. As the particles interact with the platelets, the agglutination of the particles is measured through the optical system of the VERIFYNOW™ instrument. The agglutination is detected as an increase in the transmission of infrared light through the sample.
An experiment was conducted to determine dose-dependent platelet inhibition by the PAR-1 antagonist E5555 (Eisai Co., Ltd.) using the VERIFYNOW™ IIb/IIIa Assay (Accumetrics, Inc., San Diego, Calif.) and PAR-1 thrombin receptor activating peptide (TRAP-1) as the platelet activator.
Dose response testing was performed with TRAP-1 at 3.7 μM. E5555 was used at final concentrations of 30 ng/ml, 10 ng/ml, 5.0 ng/ml and 1.0 ng/ml. 20 μL of each stock solution was spiked into 2.0 ml of whole blood (1:100 dilution) and mixed carefully to prevent hemolysis. After mixing, the blood samples were incubated for 30 min at 37° C. prior to platelet inhibition test.
Blood samples from four human donors were run in duplicate at baseline and for each of the four E5555 concentrations. As one might have expected, there was donor-to-donor variability in the levels of platelet inhibition measured at a given concentration of E5555. Based on the expected levels of inhibition at each concentration of E5555 provided, the actual results were on average slightly lower than expected across the four donors.

[2] = system: platelets in whole blood activated by PAR-1 thrombin receptor activating peptide (TRAP-1); settings: expected level of inhibition provided, cited from earlier work
[3] = guinea pig thrombosis model; cited from earlier work
[4] = rat balloon injury model; cited from earlier work
[5] = rabbit subarachnoid hemorrhage model; cited from earlier work
[6] = system: IL-6, CD40 ligand and P-selectin; settings: human cells; cited from earlier work
[7] = molecular target: T1, platelet thrombin receptors (Homo sapiens, UniProt P25116); settings: receptors activated by either thrombin or TRAP-1; cited from earlier work
T1 construct: host or cells: platelets
T1 sequence (P25116 22-425): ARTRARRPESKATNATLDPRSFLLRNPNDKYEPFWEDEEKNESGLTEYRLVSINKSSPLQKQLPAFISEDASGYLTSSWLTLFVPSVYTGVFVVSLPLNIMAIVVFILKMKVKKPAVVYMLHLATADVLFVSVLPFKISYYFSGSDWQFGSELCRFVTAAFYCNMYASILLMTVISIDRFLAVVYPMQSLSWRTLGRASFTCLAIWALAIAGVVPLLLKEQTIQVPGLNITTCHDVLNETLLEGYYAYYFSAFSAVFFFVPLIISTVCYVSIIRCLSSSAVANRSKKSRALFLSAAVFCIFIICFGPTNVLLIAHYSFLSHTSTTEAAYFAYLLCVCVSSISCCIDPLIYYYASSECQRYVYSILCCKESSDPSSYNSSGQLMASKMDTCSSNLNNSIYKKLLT

PAR-1 thrombin receptor = molecular target: T2, PAR-1 thrombin receptor (Homo sapiens, UniProt P25116); settings: cited from earlier work
T2 sequence (P25116 22-425): T1 sequence (P25116 22-425)

[8] = Phase II clinical studies, treated patients; cited from earlier work
platelet aggregation = settings: blood samples from patients undergoing non-urgent PCI; cited from earlier work

Which “% Inhibition, Average” value ([1]; 1 ng/ml E5555) does the source give for `CCOc1cc2c(c(F)c1OCC)C(=N)N(CC(=O)c1cc(N3CCOCC3)c(OC)c(C(C)(C)C)c1)C2` [E5555] here?
The value was 5%.

And the “% Inhibition, Average” value ([1]; 5 ng/ml E5555)?
The value was 30%.

What about the “% Inhibition, Average” value ([1]; 10 ng/ml E5555) of the same compound?
Its value is 57%.

What about the “% Inhibition, Average” value ([1]; 30 ng/ml E5555) of the same compound?
The value was 86%.

And the “% Inhibition (platelet inhibition relative to baseline)” value ([1]; Donor ID: 60, 1 ng/ml E5555)?
The value was 7%.

What about the “% Inhibition (platelet inhibition relative to baseline)” value ([1]; Donor ID: 60, 5 ng/ml E5555) of the same compound?
The value was 17%.

What about the “% Inhibition (platelet inhibition relative to baseline)” value ([1]; Donor ID: 60, 10 ng/ml E5555) of the same compound?
Its value is 46%.

What about the “% Inhibition (platelet inhibition relative to baseline)” value ([1]; Donor ID: 60, 30 ng/ml E5555) of the same compound?
Its value is 82%.

And the “% Inhibition (platelet inhibition relative to baseline)” value ([1]; Donor ID: 75, 1 ng/ml E5555)?
The value was −1%.

What about the “% Inhibition (platelet inhibition relative to baseline)” value ([1]; Donor ID: 75, 5 ng/ml E5555) of the same compound?
The value was 15%.

What about the “% Inhibition (platelet inhibition relative to baseline)” value ([1]; Donor ID: 75, 10 ng/ml E5555) of the same compound?
The value was 39%.

What about the “% Inhibition (platelet inhibition relative to baseline)” value ([1]; Donor ID: 75, 30 ng/ml E5555) of the same compound?
The value was 78%.

And the “% Inhibition (platelet inhibition relative to baseline)” value ([1]; Donor ID: 126, 1 ng/ml E5555)?
The value was 5%.

And the “% Inhibition (platelet inhibition relative to baseline)” value ([1]; Donor ID: 126, 5 ng/ml E5555)?
Its value is 51%.

What about the “% Inhibition (platelet inhibition relative to baseline)” value ([1]; Donor ID: 126, 10 ng/ml E5555) of the same compound?
Its value is 77%.

What about the “% Inhibition (platelet inhibition relative to baseline)” value ([1]; Donor ID: 126, 30 ng/ml E5555) of the same compound?
Its value is 97%.

And the “% Inhibition (platelet inhibition relative to baseline)” value ([1]; Donor ID: 137, 1 ng/ml E5555)?
The value was 7%.

What about the “% Inhibition (platelet inhibition relative to baseline)” value ([1]; Donor ID: 137, 5 ng/ml E5555) of the same compound?
The value was 35%.

What about the “% Inhibition (platelet inhibition relative to baseline)” value ([1]; Donor ID: 137, 10 ng/ml E5555) of the same compound?
Its value is 66%.

What about the “% Inhibition (platelet inhibition relative to baseline)” value ([1]; Donor ID: 137, 30 ng/ml E5555) of the same compound?
Its value is 88%.

What about the “% Inhibition, Expected” value ([2]; 1 ng/ml E5555) of the same compound?
The value was 10-50%.

And the “% Inhibition, Expected” value ([2]; 5 ng/ml E5555)?
The value was 40-80%.

What about the “% Inhibition, Expected” value ([2]; 10 ng/ml E5555) of the same compound?
The value was 70-100%.

And the “% Inhibition, Expected” value ([2]; 30 ng/ml E5555)?
Its value is 100%.

What about the anti-thrombotic effect [3] of the same compound?
Its anti-thrombotic effect is “anti-thrombotic effect”.

What about the “effect on neointima hyperplasia” value [4] of the same compound?
Its value is “inhibitory effects”.

What about the “effect on thrombin-induced contractile response” value [5] of the same compound?
The value was “inhibitory effects”.

What about the “effect on thrombin-induced release or expression of inflammatory markers (IL-6, CD40 ligand, P-selectin)” value [6] of the same compound?
The value was “inhibitory effects”.

For “Phe-Leu-Leu-Arg-Asn (FLLRN; printed: Phe-Leu-Leu-Arg-Asn) [truncated TRAP-1 pentapeptide]”, which “antagonism of platelet thrombin receptors” value [7] is on record?
Its value is “weak antagonist”.

With `CCOC(=O)N[C@@H]1CC[C@@H]2[C@@H](C1)C[C@H]1C(=O)O[C@H](C)[C@H]1[C@H]2/C=C/c1ccc(-c2cccc(F)c2)cn1` [SCH 530348] as the compound, how does the “inhibition of the PAR-1 thrombin receptor” value (PAR-1 thrombin receptor) read?
Its value is “potent inhibitor”.

And the “bleeding time and coagulation times” value [8]?
The value was “no increase in bleeding time or prolongation in coagulation times”.

What about the “inhibition of platelet aggregation” value (platelet aggregation) of the same compound?
Its value is “sustained, dose-dependent, specific agonist-induced inhibition of platelet aggregation”.
